Here are results for 7 compounds from patent publication US8883720B2, “Template-fixed beta-hairpin peptidomimetics with CXCR4 antagonizing activity” (Polyphor AG, priority 2008, dated 2014).

Series [1] is described as follows: in vitro. In kind it is cell-based. On the procedure:
The cytotoxicity of the depsipeptides to HELA cells (Acc57) and COS-7 cells (CRL-1651) was determined using the MTT reduction assay (T. Mossman, J. Immunol. Meth. 1983, 65, 55-63; M. V. Berridge, A. S. Tan, Arch. Biochem. Biophys. 1993, 303, 474-482). Briefly, the method was as follows: 7000 HELA cells/well and 4500 COS-7 cells/well were seeded and grown in 96-well microtiter plates for 24 h at 37° C. at 5% CO2. Thereafter, time zero (Tz) was determined by MTT reduction (see below). The supernatant of the remaining wells was discarded, and fresh medium and compounds in serial dilutions (12.5, 25 and 50 μM, triplicates) were pipetted into the wells. After incubation of the cells for 48 h at 37° C. at 5% CO2 the supernatant was discarded again and 100 μL MTT reagent (0.5 mg/mL in RPMI1640 and DMEM, respectively)/well was added. Following incubation at 37° C. for 2 h the media were aspirated and the cells were spiked (100 μL isopropanol/well). The absorbance of the solubilized formazan was measured at 595 nm (OD595peptide). For each concentration averages were calculated from triplicates. The percentage of growth was calculated as follows: (OD595peptide-OD595Tz-OD595Empty well)/(OD595Tz-OD595Empty well)×100%. The GI50 (Growth Inhibition) concentrations were calculated for each depsipeptide by using a trend line function for the concentrations (50, 25, 12.5 and 0 μM), the corresponding percentages and the value 50, (=TREND (C50:C0, %50:%0, 50).

Series [2] addresses T1, human CXCR4 (Homo sapiens, UniProt P61073).
T1 construct: expressed in transfected cells; host or cells: mouse pre-B cell line 300-19
Kind of series: Ca2+-assay: CXCR4-antagonizing activity (SDF-1 induced calcium mobilization). In kind it is cell-based. The note with it: mouse pre-B cell line 300-19 stably transfected with human CXCR4, read-out: IC50% [nM] ± SD, CXCR4 receptor. The source says:
2.3. Ca^2+-Assay: CXCR4-Antagonizing Activity of the Depsipeptides
Increases in intracellular calcium were monitored using a Flexstation 384 (Molecular Devices, Sunnyvale, Calif.) to assay the depsipeptides for CXCR4 antagonism in a mouse pre-B cell line 300-19 stably transfected with human CXCR4 (E. Oberlin, A. Amara, F. Bachelerie, C. Bessia, J.-L. Virelizier, F. Arenzana-Seisdedos, O. Schwartz, J.-M. Heard, I. Clark-Lewis, D. F. Legler, M. Loetscher, M. Baggiolini, B. Moser, Nature 1996, 382, 833-835; M. Loetscher, T. Geiser, T. O'Reilly, R. Zwalen, M. Baggiolini, B. Moser, J. Biol. Chem. 1994, 269, 232-237; M. D'Apuuo, A. Rolink, M. Loetscher, J. A. Hoxie, I. Clark-Lewis, F. Melchors, M. Baggiolini, B. Moser, Eur. J. Immunol. 1997, 27, 1788-1793). The cells were batch loaded with the Calcium 4 Assay kit (Molecular Devices) in assay buffer (Hanks Balanced salt solution [HBSS], 20 mM HEPES, pH 7.4, 0.1% BSA) for 1 h at room temperature and labeled cells were dispensed into black well assays plates (Costar No. 3603). Calcium mobilization induced by stromal-derived factor-1 (SDF-1) was measured in the Flexstation 384 (excitation: 485 nm; emission: 525 nm) for 90 seconds. Antagonist activity of depsipeptides was determined by spiking the cells with compounds prior to SDF-1 addition. Dose response curves (compound concentration versus % maximum response for SDF-1) were determined for each antagonist and IC50 values were calculated by fitting the data to a four parameter logistic equation using SoftmaxPro 4.8 (Molecular Devices).
In general terms: Calcium flux is commonly read through the fluorescence of an indicator in the cells.

In series [3] the test system is human red blood cells (hRBC). In kind it is cell-based. The note with it: red cells of human, 1 h. The protocol: 2.5. Hemolysis The depsipeptides were tested for their hemolytic activity against human red blood cells (hRBC). Fresh hRBC were washed three times with phosphate buffered saline (PBS) and centrifuged for 10 min at 2000×g. Compounds (100 μM) were incubated with 20% hRBC (v/v) for 1 h at 37° C. The final erythrocyte concentration was approximately 0.9×10^9 cells/mL. A value of 0% and 100% cell lyses, respectively, was determined by incubation of hRBC in the presence of PBS alone and 0.1% Triton X-100 in H2O, respectively. The samples were centrifuged, the supernatants were 20-fold diluted in PBS buffer and the optical densities (OD) were measured at 540 nm. The 100% lyses value (OD540H2O) gave an OD540 of approximately 1.3-1.8. Percent hemolysis was calculated as follows: (OD540peptide/OD540H2O)×100%.

A short description of series [4]: Plasma stability, mouse plasma. In kind it is in vitro ADME. The note with it: 37° C., sampled up to 240 min; for half-life at 10 μM: read-out: Plasmastability mouse pl. T1/2. On the procedure: (§1) The stability of the depsipeptides in human and mouse plasma was determined by applying the following method: 315 μL/deep well of freshly thawed human plasma (Basler Blutspende-dienst) and mouse plasma (Harlan Sera-Lab, UK), respectively, were spiked with 35 μL/well of compound in PBS (100 μM, triplicate) and incubated at 37° C. At t=0, 15, 30, 60, 120 and 240 min aliquots of 50 μL were transferred to filtration plate wells containing 150 μL/well of acetonitrile. Following shaking for 2 min the occurred suspensions were filtrated by vacuum and finally, 100 μL of each filtrate were transferred to a propylene microtiter plate, and analyzed by LC/MS as follows: Column: Waters, XBridge C18, mobile phases: (A) water+0.1% formic acid and (B) acetonitrile/water, 95/5 (v/v)+0.1% formic acid, gradient: 5%-100% (B) in 2 minutes, electrospray ionization, MRM detection (triple quadrupole). The peak areas were determined and triplicate values are averaged. The stability is expressed in percent of the initial value at t=0. (tx/t0×100). By using the TREND function of EXCEL (Microsoft Office 2003) T1/2 were determined.

The nature of series [5]: Plasma stability, human plasma. In kind it is in vitro ADME. The note with it: 37° C., sampled up to 240 min; for half-life at 10 μM: read-out: Plasmastability human pl. T1/2. The protocol: as §1

Structures are written as SMILES. Numbered stars: 1 amine (or outer) side, 2 acyl side, 3 side chain; on linkers, the order of the positions; unused ones are H or OH. Bridge positions count the residues as written; N and C are the ends. Square brackets hold non-standard residues; d marks the D form. Peptide text beside a SMILES is read from it. Abu(3S-NH2) = C[C@H](N)[C@H](N)C(=O)O; Hpla = O=C(O)[C@@H](O)Cc1ccc(O)cc1; X1 = NCC[C@H](O[*:1])C(=O)[*:2]; Lac = C[C@H](O)C(=O)O A value given as a limit tells only on which side of the number the result lay.

T1 sequence (P61073 whole entry): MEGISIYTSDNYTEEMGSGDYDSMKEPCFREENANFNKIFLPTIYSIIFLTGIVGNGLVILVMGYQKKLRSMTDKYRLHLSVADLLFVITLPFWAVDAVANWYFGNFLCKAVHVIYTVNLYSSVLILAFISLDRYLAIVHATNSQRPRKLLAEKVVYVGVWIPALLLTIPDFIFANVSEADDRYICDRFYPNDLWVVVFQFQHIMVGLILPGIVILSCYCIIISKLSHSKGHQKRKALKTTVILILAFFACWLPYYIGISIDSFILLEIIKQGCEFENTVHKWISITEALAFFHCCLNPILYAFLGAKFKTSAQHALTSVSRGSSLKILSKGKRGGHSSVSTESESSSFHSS

As a reminder, the GI50 is the concentration giving 50% growth inhibition. Usually IC50 stands for the concentration that inhibits the measured activity by half. As to `C[C@@H]1NC(=O)[C@H](CCCNC(=N)N)NC(=O)[C@@H]2CSSC[C@H](NC(=O)[C@H](Cc3ccc(O)cc3)NC(=O)[C@H](CCCNC(=N)N)NC(=O)[C@H]([C@H](C)N)NC(=O)[C@H]3CCCN3C1=O)C(=O)N[C@@H](Cc1ccc(O)cc1)C(=O)N[C@@H](CCC(N)=O)C(=O)N[C@@H](CCCCN)C(=O)N1CCC[C@@H]1C(=O)N1CCC[C@H]1C(=O)N[C@@H](Cc1ccc(O)cc1)C(=O)N[C@@H](Cc1c[nH]cn1)C(=O)O[C@@H](C)C(=O)N2` [Example 9] (cyclo(YH[Lac]CRA[dP][Abu(3S-NH2)]RYCYQK[dP]P); disulfide 4-11), the GI50 at 48 h in series [1] (African green monkey) and in series [1] (human) was more than 50 µM throughout. In addition, the IC50 in series [2] came to 20.8 ± 8.3 nM. The “Hemolysis at 100 μM” value in series [3] turned out to be 0.4%. The half-life at 10 μM in series [4] was found to be 1.23 h; in series [5], 1.42 h.
As to `C[C@@H]1NC(=O)[C@H](Cc2c[nH]cn2)NC(=O)[C@H](Cc2ccc(O)cc2)NC(=O)[C@@H]2CCCN2C(=O)[C@H]2CCCN2C(=O)[C@H](CCN)OC(=O)[C@H](CCC(N)=O)NC(=O)[C@H](Cc2ccc(O)cc2)NC(=O)[C@@H]2CSSC[C@H](NC1=O)C(=O)N[C@@H](CCCNC(=N)N)C(=O)N[C@@H](C)C(=O)N1CCC[C@@H]1C(=O)N[C@@H]([C@H](C)N)C(=O)N[C@@H](CCCNC(=N)N)C(=O)N[C@@H](Cc1ccc(O)cc1)C(=O)N2` [Example 8] (cyclo(YHACRA[dP][Abu(3S-NH2)]RYCYQ[X1][dP]P); disulfide 4-11), the GI50 at 48 h in series [1] (African green monkey) and in series [1] (human) was more than 50 µM throughout. Besides, in series [2], the 50% inhibitory concentration (IC50) is 82.4 ± 12.8 nM. In addition, the “Hemolysis at 100 μM” value in series [3] is given as 0.4%.
For `C[C@@H]1NC(=O)[C@H](Cc2c[nH]cn2)NC(=O)[C@H](Cc2ccc(O)cc2)NC(=O)[C@@H]2CCCN2C(=O)[C@H]2CCCN2C(=O)[C@H](CCCCN)NC(=O)[C@H](CCC(N)=O)NC(=O)[C@H](Cc2ccc(O)cc2)NC(=O)[C@@H]2CSSC[C@H](NC1=O)C(=O)N[C@H](CO)C(=O)O[C@@H](C)C(=O)N1CCC[C@@H]1C(=O)N[C@@H]([C@H](C)N)C(=O)N[C@@H](CCCNC(=N)N)C(=O)N[C@@H](Cc1ccc(O)cc1)C(=O)N2` [Example 7] (cyclo(YHAC[dS][Lac][dP][Abu(3S-NH2)]RYCYQK[dP]P); disulfide 4-11), the GI50 at 48 h in series [1] (African green monkey) and in series [1] (human) was more than 50 µM each time. Further, in series [2], the IC50 worked out at 2.1 ± 0.5 nM. Besides, the “Hemolysis at 100 μM” value in series [3] is on record as 0.2%. The values for the half-life at 10 μM in series [4] and in series [5] were 0.85 h and 1.03 h, respectively.
As to `C[C@@H]1NC(=O)[C@H](Cc2c[nH]cn2)NC(=O)[C@H](Cc2ccc(O)cc2)NC(=O)[C@@H]2CCCN2C(=O)[C@H]2CCCN2C(=O)[C@H](CCCCN)NC(=O)[C@H](CCC(N)=O)NC(=O)[C@H](Cc2ccc(O)cc2)OC(=O)[C@@H]2CSSC[C@H](NC1=O)C(=O)N[C@@H](CO)C(=O)N[C@@H](C)C(=O)N1CCC[C@@H]1C(=O)N[C@@H]([C@H](C)N)C(=O)N[C@@H](CCCNC(=N)N)C(=O)N[C@@H](Cc1ccc(O)cc1)C(=O)N2` [Example 3] (cyclo(YHACSA[dP][Abu(3S-NH2)]RYC[Hpla]QK[dP]P); disulfide 4-11), the GI50 at 48 h in series [1] (African green monkey) and in series [1] (human) was more than 50 µM throughout. Besides, the IC50 in series [2] was found to be 2.7 ± 1.4 nM. Moreover, the “Hemolysis at 100 μM” value in series [3] is given as 0.4%. Besides, the half-life at 10 μM is 2.27 h in series [4] and 1.35 h in series [5].
`C[C@@H]1NC(=O)[C@H](Cc2c[nH]cn2)NC(=O)[C@H](Cc2ccc(O)cc2)NC(=O)[C@@H]2CCCN2C(=O)[C@H]2CCCN2C(=O)[C@H](CCCCN)NC(=O)[C@H](CCC(N)=O)NC(=O)[C@H](Cc2ccc(O)cc2)NC(=O)[C@@H]2CSSC[C@H](NC1=O)C(=O)N[C@@H](CO)C(=O)N[C@@H](C)C(=O)N1CCC[C@@H]1C(=O)O[C@@H](CCN)C(=O)N[C@@H](CCCNC(=N)N)C(=O)N[C@@H](Cc1ccc(O)cc1)C(=O)N2` [Example 2]: the GI50 at 48 h in series [1] (African green monkey) and in series [1] (human) was more than 50 µM each time. In series [2], the 50% inhibitory concentration (IC50) worked out at 0.7 ± 0.7 nM. The “Hemolysis at 100 μM” value in series [3] worked out at 0.7%. The Plasmastability mouse pl. T1/2 in series [4] was more than 4 h. For the same compound, in series [5], the Plasmastability human pl. T1/2 is more than 4 h.
On to `C[C@@H]1NC(=O)[C@H](Cc2c[nH]cn2)NC(=O)[C@H](Cc2ccc(O)cc2)NC(=O)[C@@H]2CCCN2C(=O)[C@H]2CCCN2C(=O)[C@H](CCN)OC(=O)[C@@H](CCC(N)=O)NC(=O)[C@H](Cc2ccc(O)cc2)NC(=O)[C@@H]2CSSC[C@H](NC1=O)C(=O)N[C@@H](CCCNC(=N)N)C(=O)N[C@@H](C)C(=O)N1CCC[C@@H]1C(=O)N[C@@H]([C@H](C)N)C(=O)N[C@@H](CCCNC(=N)N)C(=O)N[C@@H](Cc1ccc(O)cc1)C(=O)N2` [Example 10] (cyclo(YHACRA[dP][Abu(3S-NH2)]RYCY[dQ][X1][dP]P); disulfide 4-11), for which the concentration for 50% growth inhibition (GI50) at 48 h in series [1] (African green monkey) and in series [1] (human) was more than 50 µM throughout. In series [2], the IC50 came to 16.6 ± 1.5 nM. The “Hemolysis at 100 μM” value in series [3] is listed as 0.3%. The half-life at 10 μM in series [4] stood at 0.0883 h; in series [5], 0.085 h.
Take `C[C@@H]1NC(=O)[C@H](Cc2c[nH]cn2)NC(=O)[C@H](Cc2ccc(O)cc2)NC(=O)[C@@H]2CCCN2C(=O)[C@H]2CCCN2C(=O)[C@H](CCCCN)NC(=O)[C@H](Cc2ccc(O)cc2)OC(=O)[C@H](Cc2ccc(O)cc2)NC(=O)[C@@H]2CSSC[C@H](NC1=O)C(=O)N[C@@H](CO)C(=O)N[C@@H](C)C(=O)N1CCC[C@@H]1C(=O)N[C@@H]([C@H](C)N)C(=O)N[C@@H](CCCNC(=N)N)C(=O)N[C@@H](Cc1ccc(O)cc1)C(=O)N2` [Example 4] (cyclo(YHACSA[dP][Abu(3S-NH2)]RYCY[Hpla]K[dP]P); disulfide 4-11): the GI50 at 48 h in series [1] (African green monkey) and in series [1] (human) was more than 50 µM throughout. Also, in series [2], the IC50 stood at 4.4 ± 1.6 nM. In addition, the “Hemolysis at 100 μM” value in series [3] turned out to be 1.0%. For the same compound, the Plasmastability mouse pl. T1/2 in series [4] is more than 4 h. In series [5], this compound had a Plasmastability human pl. T1/2 of more than 4 h.
